Laboratory results: patent US20240327469A1, “FUNCTIONALISED POLYPEPTIDES, NANOPARTICLES AND USES THEREOF” (priority 2021, published 2024)
Structures can show the parent of a compound that is named as a salt.

Key:
MCF-7 = assay: In vitro cytotoxicity (alamarBlue); type: cell-based; settings: Homo sapiens, MCF7; MCF-7, 48 h
Protocol: (§1) Doxorubicin hydrochloride (DOX) was used as the positive control. For the MCF-7 and MCF-7/ADR, the initial concentration of DOX used was 10 μg/mL and 100 μg/mL, respectively.

MCF-7 cells [1] = assay: Inhibition of cell migration (wound scratch assay); type: cell-based, human; settings: 24 h at respective IC50
Protocol: MCF-7 cells (8×10^5/well) were seeded in 6-well plates and incubated overnight for cell adhesion. To create a scratch, a 200 μL pipet tip was used to scrape a straight line through the cell layer. The old media was removed and washed with PBS, and the cells observed under a microscope to acquire images of the original scratch. […] After that, the scratches were observed and imaged using a microscope (Leica, Germany).

MCF-7/ADR cells = assay: Cellular morphology staining; type: cell-based, human; settings: 24 h, PLL-Gua and Gua-NPs 25 μg/mL, DOX 5.8 μg/mL
Protocol: (§2) MCF-7 and MCF-7/ADR cells were seeded at a density of 1000 cells/well in 50 μL medium, in a 384-well plate (PerkinElmer View Plate-384 Black). […] Treatment was performed at final concentrations of 25 μg/mL for PLL-Gua and Gua-NPs (on PLL-Gua basis) and 5.8 μg/mL for DOX, with a final volume of 40 μL per well. […] Subsequently, mitochondria were stained with Mito Tracker Deep Red solution in medium, with a final concentration of 100 nM. […] To fix the cells, 20 μL of 16% formaldehyde in PBS were added to each well (final concentration: 4%) and incubated in the dark at room temperature for 20 min. The cells were washed two times with 70 μL of Hanks' balanced salt solution (HBSS). […] The cells were incubated in the dark at room temperature for 30 min. Then, the cells were washed three times with 70 μL HBSS. The HBSS was not aspirated after the final washing step. The plates were sealed and centrifuged for 1 min at 500 rpm. The plate was then imaged using an Opera Phenix high content screening microscope (PerkinElmer) in 4 channels (Ex405/Em456; Ex488/Em522; Ex561/Em599; Ex640/Em706) with 9 sites per well and 63× magnification (binning 2).

MCF-7 cells [2] = assay: Cellular morphology staining; type: cell-based, human; settings: MCF-7, 24 h; PLL-Gua and Gua-NPs 25 μg/mL, DOX 5.8 μg/mL
Protocol: as §2

MCF-7/ADR = assay: In vitro cytotoxicity (alamarBlue); type: cell-based, human
Protocol: as §1

COc1cccc2c1C(=O)c1c(O)c3c(c(O)c1C2=O)C[C@@](O)(C(=O)CO)C[C@@H]3O[C@H]1C[C@H](N)[C@H](O)[C@H](C)O1 [DOX, Doxorubicin hydrochloride]
IC50 (MCF-7): 0.13 µg/mL | MCF-7 cell migration (MCF-7 cells [1]): reduced wound gap | cellular morphology (MCF-7/ADR cells): did not induce such changes | cellular morphology (MCF-7 cells [2]): drastic decrease in the staining of DNA and RNA | difference of IC50 value, MCF-7/ADR vs MCF-7 (MCF-7/ADR): 769 fold
